Results reported in the NIST ThermoML archive (doi:10.1007/s10765-009-0648-5).

Experiment: wn = mass fraction of the nth substance listed
Conditions: 101 kPa, Liquid

CCC[n+]1ccn(C)c1.[Br-] [1-methyl-3-propylimidazolium bromide] + C[S+](C)[O-]
Conditions | mass density, 288.15 K [kg/m3] | mass density, 293.15 K [kg/m3] | mass density, 298.15 K [kg/m3] | mass density, 303.15 K [kg/m3] | mass density, 308.15 K [kg/m3] | speed of sound, 288.15 K [m/s] | speed of sound, 293.15 K [m/s] | speed of sound, 298.15 K [m/s] | speed of sound, 303.15 K [m/s] | speed of sound, 308.15 K [m/s]
w1 = 0.0077 | 1107.07 | 1102.06 | 1097.05 | 1092.04 | 1087.03 | 1520.9 | 1504.2 | 1487.3 | 1470.4 | 1453.6
w1 = 0.0102 | 1107.62 | 1102.61 | 1097.6 | 1092.6 | 1087.6 | 1521.5 | 1504.7 | 1487.8 | 1470.9 | 1454.2
w1 = 0.012 | 1108.05 | 1103.04 | 1098.04 | 1093.03 | 1088.03 | 1521.9 | 1505.2 | 1488.3 | 1471.4 | 1454.7
w1 = 0.0159 | 1108.91 | 1103.91 | 1098.91 | 1093.92 | 1088.93 | 1523 | 1506 | 1489.2 | 1472.3 | 1455.7
w1 = 0.0203 | 1109.88 | 1104.88 | 1099.89 | 1094.91 | 1089.93 | 1523.8 | 1507 | 1490.2 | 1473.4 | 1456.7
w1 = 0.0252 | 1110.97 | 1105.98 | 1100.99 | 1096.02 | 1091.04 | 1524.8 | 1507.8 | 1491 | 1474.2 | 1457.6
w1 = 0.0297 | 1111.95 | 1106.98 | 1102 | 1097.03 | 1092.07 | 1525.8 | 1509.1 | 1492.3 | 1475.5 | 1458.9
w1 = 0.0356 | 1113.27 | 1108.3 | 1103.33 | 1098.37 | 1093.42 | 1527 | 1510.4 | 1493.6 | 1476.9 | 1460.3
w1 = 0.0423 | 1114.74 | 1109.78 | 1104.82 | 1099.87 | 1094.93 | 1528.5 | 1511.6 | 1494.9 | 1478.2 | 1461.7
w1 = 0.0502 | 1116.49 | 1111.55 | 1106.6 | 1101.67 | 1096.73 | 1530.2 | 1513.5 | 1496.9 | 1480.2 | 1463.6
w1 = 0.0599 | 1118.62 | 1113.69 | 1108.76 | 1103.84 | 1098.93 | 1532.1 | 1515.3 | 1498.7 | 1482.1 | 1465.7
w1 = 1 | 1323.47 | 1319.84 | 1316.22 | 1312.6 | 1308.97 | 1699.3 | 1685 | 1672 | 1659.9 | 1648.3
